For series [1], the system named is PLK4. As to the kind of experiment: QT-PCR, PLK4 mRNA in Kelly cells. The class given is cell-based, human. As to conditions: Table 11; PLKA4, Kelly cells; 2.5 μM. The procedure:
(§1) For the purpose of assessing the ability of the oligonucleotides of the present invention to modulate the expression of the target genes, their ability to reduce the quantity of messenger RNA was analyzed using the Real-Time PCR technique.
(§2) The cells were treated with the oligonucleotides, adding FBS up to 4% 6 hours after administration of the same. After 24 hours the total RNA was extracted from each well and purified using the RNeasy Mini Kit (QIAGEN).
(§3) As a control, use was made of the same cell lines as listed above treated with sterile water instead of oligonucleotides. Each RNA sample was quantified (in duplicate) using a NanoDrop ND-1000 spectrophotometer (NanoDrop Technologies). The first strand of cDNA was produced using the cDNA Synthesis Kit for RT-PCR (Roche). For the cDNA synthesis reaction a total of 1 μg of RNA was used. For the real-time PCR, 10 ng of cDNA in a final volume of 20 μl was used with SYBR Green Master Mix 2× (Applied Biosystems) (3 identical experiments were conducted in triplicate). Two housekeeping genes were used as positive controls: GAPDH and beta-actin (ACTB). […]
(§4) The ability of the tested oligonucleotides to inhibit the messenger of the gene of interest was measured and the proliferative capacity of the cells following administration of the oligonucleotides was also assessed.

For series [2], the system named is Kelly cells. The series can be described thus: Cellular proliferation assay (ATP-Lite), Kelly cells. The class given is cell-based, human. As to conditions: 2.5 μM. The method, then:
For the purpose of assessing the gene modulation ability of the oligonucleotides of the present invention, the effect of their administration on cell viability was determined.
(§5) For this purpose 5×10^3 cells per well were seeded into 96-well cell culture plates (experiments conducted in triplicate) with 100 μl of OPTI-MEM (GIBCO BRL) medium containing 4% FBS and 2 mM of L-glutammine.
The PNA oligonucleotides were administered at different concentrations (1 μM-2.5 μM-5 μM-10 μM) in order to observe a dose-effect relationship.
As regards all the other oligonucleotides, the concentrations at which they administered are listed in the paragraph:
The viability of the treated cells was determined at 48, 72, 96 and 168 hours after treatment.
(§6) Cell viability was assessed by means of an ATP-Lite assay (Luminescence ATP Detection Assay System, PerkinElmer) and is reported as the ratio between the average signal of the treated wells compared to the average value of the wells of untreated control cells. The cells were processed following the instructions provided with the kit.
The assays were performed on the same cell lines used to determine the levels of the MYCN gene messenger and listed in the paragraph: Treatments with Oligonucleotides—QT-PCR.
As far as the PNA oligonucleotides are concerned, the results regarding their ability to inhibit the transcription of the MYCN gene and proliferation of Kelly cells are shown in Table 1.
as §4

Series [3] relates to H82. The series can be described thus: Cellular proliferation, H82 cells. The conditions noted are these: Table 11, MYC-directed PNA, 2.5 μM. It counts as cell-based. The method, then:
as §5, §6
(§7) The oligonucleotides were tested in vitro (at a concentration of 2.5 μM) to determine their ability to inhibit the transcription of the gene they are directed against by measuring the levels of the gene messenger in cellular models in which the gene of interest is overexpressed. The methods used are the ones described in example 1.
(§8) In particular, SEQ ID NO: 66-69 (directed against MYCN) were tested in vitro in the Kelly and H69 cell lines; SEQ ID NO: 70-74 (directed against MYC) were tested in vitro in the H82 and RD cell lines, SEQ ID NO: 75, 76 (directed against BIRC5) were tested in vitro in the Kelly cell line, SEQ ID NO: 77-79 (directed against ALK) were tested in vitro in the Kelly cell line, SEQ ID NO: 80-82 (directed against BCL2) were tested in vitro in the Kelly cell line and SEQ ID NO: 83, 84 (directed against PLK4) were tested in vitro in the Kelly cell line.
as §4

Series [4] concerns MYC. The series can be described thus: QT-PCR, MYC mRNA in H82 cells. The class given is cell-based. The conditions noted are these: Table 11, 2.5 μM. The method, then: as §1, §2
(§9) As a control, use was made of the same cell lines as listed above treated with sterile water instead of oligonucleotides. Each RNA sample was quantified (in duplicate) using a NanoDrop ND-1000 spectrophotometer (NanoDrop Technologies). The first strand of cDNA was produced using the cDNA Synthesis Kit for RT-PCR (Roche). For the cDNA synthesis reaction a total of 1 μg of RNA was used. For the real-time PCR, 10 ng of cDNA in a final volume of 20 μl was used with SYBR Green Master Mix 2× (Applied Biosystems) (3 identical experiments were conducted in triplicate). Two housekeeping genes were used as positive controls: GAPDH and beta-actin (ACTB).
(§10) The conditions of the QT-PCR reaction were: 10 min at 95° C., 20 sec at 95° C., and 30 sec at 60° C., for 50 cycles.
as §7, §8, §4

In series [5] the test system is RD. As to the kind of experiment: Cellular proliferation, RD cells. As to conditions: Table 11, MYC-directed PNA, 2.5 μM. The class given is cell-based. The procedure:
as §5, §6, §7, §8, §4

Series [6] deals with MYC. As to the kind of experiment: QT-PCR, MYC mRNA in RD cells. The class given is cell-based. The conditions noted are these: Table 11, 2.5 μM. The procedure: as §1, §2, §9, §10, §7, §8, §4
The subject of series [7] is BCL2. The series can be described thus: QT-PCR, BCL2 mRNA in Kelly cells. The class given is cell-based, human. The conditions noted are these: Table 11, 2.5 μM. The procedure:
as §1, §2, §9, §10
(§11) The oligonucleotides were tested in vitro (at a concentration of 2.5 μM) to determine their ability to inhibit the transcription of the gene they are directed against by measuring the levels of the gene messenger in cellular models in which the gene of interest is overexpressed. The methods used are the ones described in example 1. […]
as §4

Series [8] has as its system ALK. The series can be described thus: QT-PCR, ALK mRNA in Kelly cells. The class given is cell-based, human. As to conditions: Table 11, 2.5 μM. The method, then: as §1, §2, §9, §10, §11, §4
Series [9] deals with BIRC5. As to the kind of experiment: QT-PCR, BIRC5 mRNA in Kelly cells. The class given is cell-based, human. As to conditions: Table 11, 2.5 μM. The procedure: as §1, §2, §3, §4

Consider “SEQ ID NO: 84: PNA GGACGGCAAGCGGCGG directed against PLK4 (all peptide nucleic acid (PNA); antigene PNA)”, for which the “mRNA inhibit. (%)” value in [1] is reported as 74%. Further, in series [2] (Table 11, PLK4-directed PNA), the “Cell Prolif. (%)” value amounted to 49%.

Regarding “SEQ ID NO: 74: PNA GGACGGGGGCGGTGGA directed against MYC (all peptide nucleic acid (PNA); antigene PNA)”, the results for the “Cell Prolif. (%)” value in [3] and in [5] were 61% and 47%, respectively. Besides, the “mRNA inhibit. (%)” value was found to be 61% in [4] and 64% in [6].

For the substance “SEQ ID NO: 81: PNA GGGAAGGATGGCGCAC directed against BCL2 (all peptide nucleic acid (PNA); antigene PNA)”, in [2] (Table 11, BCL2-directed PNA), the “Cell Prolif. (%)” value was determined as 58%. Besides, the “mRNA inhibit. (%)” value in series [7] worked out at 62%.

Regarding “SEQ ID NO: 77: PNA GCAGGAGAGGACGGTA directed against ALK (all peptide nucleic acid (PNA); antigene PNA)”, the “Cell Prolif. (%)” value in [2] (Table 11, ALK-directed PNA) is reported as 55%. In series [8], the “mRNA inhibit. (%)” value is 57%.

As to “SEQ ID NO: 73: PNA CGACGGCGGTGGCGGG directed against MYC (all peptide nucleic acid (PNA); antigene PNA)”, the “Cell Prolif. (%)” value in [3] amounted to 65%; in series [5], 51%. For the same substance, the “mRNA inhibit. (%)” value stood at 56% in [4] and 59% in [6].

Regarding “SEQ ID NO: 80: PNA GGATGGCGCACGCTGG directed against BCL2 (all peptide nucleic acid (PNA); antigene PNA)”, in series [2] (Table 11, BCL2-directed PNA), the “Cell Prolif. (%)” value was 62%. Further, the “mRNA inhibit. (%)” value in [7] was 59%.

For the substance “SEQ ID NO: 78: PNA CAGGAGAGGACGGTAC directed against ALK (all peptide nucleic acid (PNA); antigene PNA)”, the “Cell Prolif. (%)” value in [2] (Table 11, ALK-directed PNA) is given as 46%. For the same substance, in series [8], the “mRNA inhibit. (%)” value stood at 68%.

Consider “SEQ ID NO: 72: PNA CGGCCGGCTAGGGTGG directed against MYC (all peptide nucleic acid (PNA); antigene PNA)”, for which the “Cell Prolif. (%)” value in [3] is recorded as 64%; in series [5], 53%. Moreover, the “mRNA inhibit. (%)” value in series [4] stood at 52%; in series [6], 58%.

Consider “SEQ ID NO: 83: PNA ACGGCAAGCGGCGGGA directed against PLK4 (all peptide nucleic acid (PNA); antigene PNA)”, for which the “mRNA inhibit. (%)” value in series [1] is reported as 62%. Also, the “Cell Prolif. (%)” value in [2] (Table 11, PLK4-directed PNA) is recorded as 59%.

With “SEQ ID NO: 79: PNA GGCAGGAGAGGACGGT directed against ALK (all peptide nucleic acid (PNA); antigene PNA)”, in series [2] (Table 11, ALK-directed PNA), the “Cell Prolif. (%)” value was 39%. The “mRNA inhibit. (%)” value in series [8] is 79%.

As for “SEQ ID NO: 75: PNA GCGGCGGCATGGGTGC directed against BIRC5 (all peptide nucleic acid (PNA); antigene PNA)”, in [2] (Table 11, BIRC5-directed PNA), the “Cell Prolif. (%)” value is listed as 43%. The “mRNA inhibit. (%)” value in series [9] turned out to be 69%.

“SEQ ID NO: 82: PNA CCACGGTGGTGGAGGA directed against BCL2 (all peptide nucleic acid (PNA); antigene PNA)”: the “Cell Prolif. (%)” value in [2] (Table 11, BCL2-directed PNA) came to 55%. Moreover, the “mRNA inhibit. (%)” value in series [7] was determined as 68%.

Take “SEQ ID NO: 71: PNA GCGGCCGGCTAGGGTG directed against MYC (all peptide nucleic acid (PNA); antigene PNA)”: the “Cell Prolif. (%)” value in [3] was determined as 75%; in series [5] it was 65%. Besides, the entries for the “mRNA inhibit. (%)” value in series [4] and in series [6] were 46% and 42%, respectively.

In the case of “SEQ ID NO: 70: PNA CTCAGAGGCTTGGCGG directed against MYC (all peptide nucleic acid (PNA); antigene PNA)”, the “Cell Prolif. (%)” value in [3] was 79%; in [5] it was 73%. The “mRNA inhibit. (%)” value is 43% in [4] and 34% in series [6].

For the substance “SEQ ID NO: 76: PNA GGCGGCGGCATGGGTG directed against BIRC5 (all peptide nucleic acid (PNA); antigene PNA)”, the “Cell Prolif. (%)” value in series [2] (Table 11, BIRC5-directed PNA) was 35%. In addition, the “mRNA inhibit. (%)” value in series [9] worked out at 78%.

These data come from patent US10752900B2, “Oligonucleotides for modulating gene expression and uses thereof” (BIOGENERA S.P.A., priority 2012, dated 2020).
